# Assay results as given in patent publication US12077503B2, “Substituted cyclic amides and their use as herbicides” (FMC CORPORATION, priority 2015, dated 2024).
# How the values were obtained:
# Assay type in all cases: in vivo
# [1] = test system: barnyardgrass (Echinochloa crus-galli); assay: Test G Pre-Emergence Protocol; details: Echinochloa crus-galli, pre-emergence, 312 h, evaluated after 13 days; for pest or weed control at 15.625 g/ha: 15.625 g ai/ha, read-out: Barnyard grass damage rating (100=total damage to plant; 0=no damage to plant); for pest or weed control at 62.5 g/ha: 62.5 g ai/ha, 100=total damage to plant, 0=no damage to plant, read-out: plant damage rating, Barnyardgrass; for pest or weed control at 250 g/ha: 250 g ai/ha, read-out: Barnyardgrass damage rating (100=total damage to plant; 0=no damage to plant)
# Outline: (§1)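 Under a 24/16° C day/night regime with 14 h light and 65% humidity, sown pots were sprayed after one day with compound (15.625, 62.5 or 250 g/ha; 50:50 acetone/water, 0.5% Tween 20). Damage was assessed visually 13 days later, 0 to 100.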
# corn (Zea mays) [2] = assay: Test G Pre-Emergence Protocol; details: Zea mays, pre-emergence, 312 h, evaluated after 13 days; for plant injury at 15.625 g/ha: 15.625 g ai/ha; for plant injury at 15.625 g/ha / plant injury at 250 g/ha: read-out: Corn damage rating (100=total damage to plant; 0=no damage to plant); for plant injury at 62.5 g/ha: 62.5 g ai/ha, 100=total damage to plant, 0=no damage to plant, read-out: plant damage rating, Corn; for plant injury at 250 g/ha: 250 g ai/ha
# Outline: as §1
# [3] = test system: giant foxtail (Setaria faberi); assay: Test G Pre-Emergence Protocol; details: Setaria faberi, pre-emergence, 312 h, evaluated after 13 days; for pest or weed control at 15.625 g/ha: 15.625 g ai/ha; for pest or weed control at 15.625 g/ha / pest or weed control at 250 g/ha: read-out: Foxtail, Giant damage rating (100=total damage to plant; 0=no damage to plant); for pest or weed control at 62.5 g/ha: 62.5 g ai/ha, 100=total damage to plant, 0=no damage to plant, read-out: plant damage rating, Foxtail, Giant; for pest or weed control at 250 g/ha: 250 g ai/ha
# Outline: as §1
# [4] = test system: ivy-leaved morning glory (Ipomoea hederacea); assay: Test G Pre-Emergence Protocol; details: Ipomoea, pre-emergence, 312 h, evaluated after 13 days; for pest or weed control at 15.625 g/ha: 15.625 g ai/ha, read-out: Morning-glory, Ivy-leaved damage rating (100=total damage to plant; 0=no damage to plant); for pest or weed control at 62.5 g/ha: 62.5 g ai/ha, 100=total damage to plant, 0=no damage to plant, read-out: plant damage rating, Morningglory, Ivy-leaved; for pest or weed control at 250 g/ha: 250 g ai/ha, read-out: Morningglory, Ivy-leaved damage rating (100=total damage to plant; 0=no damage to plant)
# Outline: as §1
# [5] = test system: redroot pigweed (Amaranthus retroflexus); assay: Test G Pre-Emergence Protocol; details: Amaranthus retroflexus, pre-emergence, 312 h, evaluated after 13 days; for pest or weed control at 15.625 g/ha: 15.625 g ai/ha; for pest or weed control at 15.625 g/ha / pest or weed control at 250 g/ha: read-out: Pigweed, Redroot damage rating (100=total damage to plant; 0=no damage to plant); for pest or weed control at 62.5 g/ha: 62.5 g ai/ha, 100=total damage to plant, 0=no damage to plant, read-out: plant damage rating, Pigweed, Redroot; for pest or weed control at 250 g/ha: 250 g ai/ha
# Outline: as §1
# [6] = test system: velvetleaf (Abutilon theophrasti); assay: Test G Pre-Emergence Protocol; details: Abutilon theophrasti, pre-emergence, 312 h, evaluated after 13 days; for pest or weed control at 15.625 g/ha: 15.625 g ai/ha; for pest or weed control at 15.625 g/ha / pest or weed control at 250 g/ha: read-out: Velvetleaf damage rating (100=total damage to plant; 0=no damage to plant); for pest or weed control at 62.5 g/ha: 62.5 g ai/ha, 100=total damage to plant, 0=no damage to plant, read-out: plant damage rating, Velvetleaf; for pest or weed control at 250 g/ha: 250 g ai/ha
# Outline: as §1
# [7] = test system: barnyardgrass (Echinochloa crus-galli); assay: Test G Post-Emergence Protocol; details: Echinochloa crus-galli, post-emergence, 312 h; for pest or weed control at 15.625 g/ha: 15.625 g ai/ha, evaluated after 13 days (100=total damage to plant; 0=no damage to plant), read-out: Barnyardgrass damage rating; for pest or weed control at 62.5 g/ha: 62.5 g ai/ha, read-out: Barnyardgrass damage rating (100=total damage to plant; 0=no damage to plant); for pest or weed control at 62.5 g/ha / pest or weed control at 250 g/ha: evaluated after 13 days; for pest or weed control at 250 g/ha: 250 g ai/ha, read-out: damage to plant, Barnyardgrass (100=total damage to plant; 0=no damage to plant)
# Outline: (§2)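 Eight days post-sowing, plants received a spray of test compound (acetone/water 50:50, 0.5% Tween 20) at 15.625, 62.5 or 250 g/ha. Glasshouse regime thereafter: 24/16 °C, 14 h light, 65% humidity. Assessment after 13 days on a 0–100 damage scale.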
# corn (Zea mays) [8] = assay: Test G Post-Emergence Protocol; details: Zea mays, post-emergence, 312 h; for plant injury at 15.625 g/ha: 15.625 g ai/ha, evaluated after 13 days (100=total damage to plant; 0=no damage to plant), read-out: Corn damage rating; for plant injury at 62.5 g/ha: 62.5 g ai/ha, read-out: Corn damage rating (100=total damage to plant; 0=no damage to plant); for plant injury at 62.5 g/ha / plant injury at 250 g/ha: evaluated after 13 days; for plant injury at 250 g/ha: 250 g ai/ha, read-out: damage to plant, Corn (100=total damage to plant; 0=no damage to plant)
# Outline: as §2
# [9] = test system: giant foxtail (Setaria faberi); assay: Test G Post-Emergence Protocol; details: Setaria faberi, post-emergence, 312 h; for pest or weed control at 15.625 g/ha: 15.625 g ai/ha, evaluated after 13 days (100=total damage to plant; 0=no damage to plant), read-out: Foxtail, Giant damage rating; for pest or weed control at 62.5 g/ha: 62.5 g ai/ha, read-out: Foxtail, Giant damage rating (100=total damage to plant; 0=no damage to plant); for pest or weed control at 62.5 g/ha / pest or weed control at 250 g/ha: evaluated after 13 days; for pest or weed control at 250 g/ha: 250 g ai/ha, read-out: damage to plant, Foxtail, Giant (100=total damage to plant; 0=no damage to plant)
# Outline: as §2
# [10] = test system: ivy-leaved morning glory (Ipomoea hederacea); assay: Test G Post-Emergence Protocol; details: Ipomoea, post-emergence, 312 h; for pest or weed control at 15.625 g/ha: 15.625 g ai/ha, evaluated after 13 days (100=total damage to plant; 0=no damage to plant), read-out: Morningglory, Ivy-leaved damage rating; for pest or weed control at 62.5 g/ha: 62.5 g ai/ha, read-out: Morningglory, Ivy-leaved damage rating (100=total damage to plant; 0=no damage to plant); for pest or weed control at 62.5 g/ha / pest or weed control at 250 g/ha: evaluated after 13 days; for pest or weed control at 250 g/ha: 250 g ai/ha, read-out: damage to plant, Morningglory, Ivy-leaved (100=total damage to plant; 0=no damage to plant)
# Outline: as §2
# [11] = test system: redroot pigweed (Amaranthus retroflexus); assay: Test G Post-Emergence Protocol; details: Amaranthus retroflexus, post-emergence, 312 h; for pest or weed control at 15.625 g/ha: 15.625 g ai/ha, evaluated after 13 days (100=total damage to plant; 0=no damage to plant), read-out: Pigweed, Redroot damage rating; for pest or weed control at 62.5 g/ha: 62.5 g ai/ha, read-out: Pigweed, Redroot damage rating (100=total damage to plant; 0=no damage to plant); for pest or weed control at 62.5 g/ha / pest or weed control at 250 g/ha: evaluated after 13 days; for pest or weed control at 250 g/ha: 250 g ai/ha, read-out: damage to plant, Pigweed, Redroot (100=total damage to plant; 0=no damage to plant)
# Outline: as §2
# [12] = test system: velvetleaf (Abutilon theophrasti); assay: Test G Post-Emergence Protocol; details: Abutilon theophrasti, post-emergence, 312 h; for pest or weed control at 15.625 g/ha: 15.625 g ai/ha, evaluated after 13 days (100=total damage to plant; 0=no damage to plant), read-out: Velvetleaf damage rating; for pest or weed control at 62.5 g/ha: 62.5 g ai/ha, read-out: Velvetleaf damage rating (100=total damage to plant; 0=no damage to plant); for pest or weed control at 62.5 g/ha / pest or weed control at 250 g/ha: evaluated after 13 days; for pest or weed control at 250 g/ha: 250 g ai/ha, read-out: damage to plant, Velvetleaf (100=total damage to plant; 0=no damage to plant)
# Outline: as §2
Structure (SMILES),pest or weed control at 15.625 g/ha [1] [%],pest or weed control at 62.5 g/ha [1] [%],pest or weed control at 250 g/ha [1] [%],plant injury at 15.625 g/ha (corn (Zea mays) [2]) [%],plant injury at 62.5 g/ha (corn (Zea mays) [2]) [%],plant injury at 250 g/ha (corn (Zea mays) [2]) [%],pest or weed control at 15.625 g/ha [3] [%],pest or weed control at 62.5 g/ha [3] [%],pest or weed control at 250 g/ha [3] [%],pest or weed control at 15.625 g/ha [4] [%],pest or weed control at 62.5 g/ha [4] [%],pest or weed control at 250 g/ha [4] [%],pest or weed control at 15.625 g/ha [5] [%],pest or weed control at 62.5 g/ha [5] [%],pest or weed control at 250 g/ha [5] [%],pest or weed control at 15.625 g/ha [6] [%],pest or weed control at 62.5 g/ha [6] [%],pest or weed control at 250 g/ha [6] [%],pest or weed control at 15.625 g/ha [7] [%],pest or weed control at 62.5 g/ha [7] [%],other results
CN1C[C@H](c2ccc3c(c2)OCCO3)[C@@H](C(=O)Nc2cccc(F)c2F)C1=O (racemic) [Compound 1490],0,50,80,0,0,10,0,40,90,0,0,0,0,0,0,0,0,0,50,60,pest or weed control at 250 g/ha [7]: 60%; plant injury at 15.625 g/ha (corn (Zea mays) [8]): 0%; plant injury at 62.5 g/ha (corn (Zea mays) [8]): 30%; plant injury at 250 g/ha (corn (Zea mays) [8]): 40%; pest or weed control at 15.625 g/ha [9]: 50%; pest or weed control at 62.5 g/ha [9]: 60%; pest or weed control at 250 g/ha [9]: 60%; pest or weed control at 15.625 g/ha [10]: 0%; pest or weed control at 62.5 g/ha [10]: 0%; pest or weed control at 250 g/ha [10]: 30%; pest or weed control at 15.625 g/ha [11]: 0%; pest or weed control at 62.5 g/ha [11]: 0%; pest or weed control at 250 g/ha [11]: 0%; pest or weed control at 15.625 g/ha [12]: 0%; pest or weed control at 62.5 g/ha [12]: 0%; pest or weed control at 250 g/ha [12]: 20%
Cc1nc(F)ccc1[C@@H]1CN(C)C(=O)[C@H]1C(=O)Nc1cccc(F)c1F (racemic) [Compound 1492],0,20,80,0,0,0,0,20,80,0,0,0,0,0,0,0,0,0,0,30,pest or weed control at 250 g/ha [7]: 60%; plant injury at 15.625 g/ha (corn (Zea mays) [8]): 0%; plant injury at 62.5 g/ha (corn (Zea mays) [8]): 0%; plant injury at 250 g/ha (corn (Zea mays) [8]): 0%; pest or weed control at 15.625 g/ha [9]: 0%; pest or weed control at 62.5 g/ha [9]: 40%; pest or weed control at 250 g/ha [9]: 60%; pest or weed control at 15.625 g/ha [10]: 0%; pest or weed control at 62.5 g/ha [10]: 0%; pest or weed control at 250 g/ha [10]: 0%; pest or weed control at 15.625 g/ha [11]: 0%; pest or weed control at 62.5 g/ha [11]: 0%; pest or weed control at 250 g/ha [11]: 0%; pest or weed control at 15.625 g/ha [12]: 0%; pest or weed control at 62.5 g/ha [12]: 0%; pest or weed control at 250 g/ha [12]: 20%
Cc1cc([C@@H]2CN(C)C(=O)[C@H]2C(=O)Nc2cccc(F)c2F)cnc1Cl (racemic) [Compound 1493],40,90,90,0,0,70,60,80,90,0,0,10,0,0,0,0,0,0,40,70,pest or weed control at 250 g/ha [7]: 80%; plant injury at 15.625 g/ha (corn (Zea mays) [8]): 10%; plant injury at 62.5 g/ha (corn (Zea mays) [8]): 40%; plant injury at 250 g/ha (corn (Zea mays) [8]): 80%; pest or weed control at 15.625 g/ha [9]: 40%; pest or weed control at 62.5 g/ha [9]: 60%; pest or weed control at 250 g/ha [9]: 60%; pest or weed control at 15.625 g/ha [10]: 0%; pest or weed control at 62.5 g/ha [10]: 0%; pest or weed control at 250 g/ha [10]: 0%; pest or weed control at 15.625 g/ha [11]: 0%; pest or weed control at 62.5 g/ha [11]: 0%; pest or weed control at 250 g/ha [11]: 0%; pest or weed control at 15.625 g/ha [12]: 0%; pest or weed control at 62.5 g/ha [12]: 0%; pest or weed control at 250 g/ha [12]: 0%
